# Experimental data reported in the supplement of paper PMC12317010.
# Structures can show the parent of a compound that is named as a salt.
# Test: collision cross section in nitrogen (drift tube, single-field); higher = larger gas-phase ion size
# [1] = ion type: [M+H], ion source: ESI, ion mode: Positive
# [2] = ion type: [M-H], ion source: ESI, ion mode: Negative
# [3] = ion type: [M+Na], ion source: ESI, ion mode: Positive
# [4] = ion type: [M+H], ion source: APCI, ion mode: Positive
# [5] = ion type: [M+], ion source: APCI, ion mode: Positive
# 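Also: chemical standards at 10 µM analysed by drift tube IMS-QTOF MS in about 3.95 torr nitrogen, mean of duplicate injections differing ≤1%, mass error below 10 ppm.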
Structure (SMILES),collision cross section in nitrogen [1],collision cross section in nitrogen [2],collision cross section in nitrogen [3],collision cross section in nitrogen [4],collision cross section in nitrogen [5]
Nc1ccc(N=Nc2ccc(-c3ccc(N=Nc4c(S(=O)(=O)O)cc5cc(S(=O)(=O)O)c(N=Nc6ccccc6)c(O)c5c4N)cc3)cc2)c(N)c1 [C.I. Direct Black 38],311 Å²,304.4 Å²,–,–,–
O=C(Nc1ccc2c(O)c(N=Nc3ccc(N=Nc4ccc(S(=O)(=O)O)cc4)cc3)c(S(=O)(=O)O)cc2c1)c1ccccc1 [C.I. Direct Red 81 disodium salt],276.7 Å²,283.1 Å²,–,–,–
CCOc1ccc(N=Nc2ccc(C=Cc3ccc(N=Nc4ccc(OCC)cc4)cc3S(=O)(=O)O)c(S(=O)(=O)O)c2)cc1 [C.I. Direct Yellow 12],278.7 Å²,279.3 Å²,286.9 Å²,–,–
COc1cc(-c2ccc(N)c(OC)c2)ccc1N [C.I. Disperse Black 6 dihydrochloride],169.9 Å²,–,–,169.7 Å²,156.1 Å²
COc1cc(-c2ccc(N)c(OC)c2)ccc1N [C.I. Disperse Black 6],170 Å²,–,–,170.4 Å²,156.6 Å²
CNc1ccc(NCCO)c2c1C(=O)c1ccccc1C2=O [C.I. Disperse Blue 3],167.5 Å²,–,–,167.2 Å²,–
O=C1c2c(O)ccc(Nc3ccc(CCO)cc3)c2C(=O)c2c([N+](=O)[O-])ccc(O)c21 [C.I. Disperse Blue 27],–,201.7 Å²,189.9 Å²,–,–
CCN(CCC#N)c1ccc(N=Nc2ccc([N+](=O)[O-])cc2)cc1 [C.I. Disperse Orange 25],188.8 Å²,–,189.8 Å²,188.5 Å²,–
CCN(CCC#N)c1ccc(N=Nc2c(Cl)cc([N+](=O)[O-])cc2Cl)cc1 [C.I. Disperse Orange 37],197.9 Å²,–,–,197.8 Å²,–
Nc1c(Oc2ccccc2)cc(O)c2c1C(=O)c1ccccc1C2=O [C.I. Disperse Red 60],178 Å²,175.8 Å²,–,177.7 Å²,172.6 Å²
CC(=O)Nc1ccc(N=Nc2cc(C)ccc2O)cc1 [C.I. Disperse Yellow 3],168.2 Å²,168.7 Å²,–,167.8 Å²,–
O=C1c2ccccc2C(=O)C1c1nc2ccccc2c(Br)c1O [C.I. Disperse Yellow 64],–,171.5 Å²,–,167.5 Å²,–
"O=S(=O)(O)c1cc(Nc2nc(Nc3ccccc3)nc(N(CCO)CCO)n2)ccc1C=Cc1ccc(Nc2nc(Nc3ccccc3)nc(N(CCO)CCO)n2)cc1S(=O)(=O)O [C.I. Fluorescent Brightener 28, disodium salt]",307.5 Å²,282.8 Å²,–,–,–
CC(=O)Nc1ccc(N=Nc2c(S(=O)(=O)O)cc3cc(S(=O)(=O)O)cc(NC(C)=O)c3c2O)cc1 [C.I. Food Red 11],–,231.8 Å²,–,–,–
Cc1ccc([N+](=O)[O-])cc1N=Nc1c(O)c(C(=O)Nc2ccccc2)cc2ccccc12 [C.I. Pigment Red 22],–,207 Å²,–,–,–
Cc1cc(N=Nc2c(O)ccc3ccccc23)c(S(=O)(=O)O)cc1Cl [C.I. Pigment Red 53],–,187.2 Å²,–,–,–
Cc1ccc2[nH]c3cc4c(=O)c5cc(C)ccc5[nH]c4cc3c(=O)c2c1 [C.I. Pigment Red 122],–,185.7 Å²,–,183.4 Å²,–

Structure (SMILES),collision cross section in nitrogen [1],collision cross section in nitrogen [2],collision cross section in nitrogen [3],collision cross section in nitrogen [4],collision cross section in nitrogen [5]
CC(=O)C(=NNc1ccc(-c2ccc(NN=C(C(C)=O)C(=O)Nc3ccc(C)cc3C)c(Cl)c2)cc1Cl)C(=O)Nc1ccc(C)cc1C [C.I. Pigment Yellow 13],–,–,–,238.9 Å²,238.3 Å²
Cc1ccc(N=Nc2c(O)ccc3ccccc23)c(C)c1 [C.I. Solvent Orange 7],166.8 Å²,–,–,163.6 Å²,–
CCN(CC)c1ccc2c(c1)Oc1cc(N(CC)CC)ccc1C21OC(=O)c2ccccc21 [C.I. Solvent Red 49],218.5 Å²,–,230.2 Å²,217.9 Å²,–
O=C1OC2(c3ccccc31)c1ccc(O)c(Br)c1Oc1c2ccc(O)c1Br [C.I. Solvent Red 72],185 Å²,190.5 Å²,205.5 Å²,186.2 Å²,–
COc1ccc(OC)c(N=Nc2c(O)ccc3ccccc23)c1 [C.I. Solvent Red 80],171.6 Å²,177.5 Å²,–,171.6 Å²,–
O=C1OC2(c3ccccc31)c1cc(I)c(O)c(I)c1Oc1c2cc(I)c(O)c1I [C.I. Solvent Red 140],211.3 Å²,218.2 Å²,–,211.8 Å²,–
Nc1ccc(N=Nc2ccccc2)cc1 [C.I. Solvent Yellow 1],146.9 Å²,145.4 Å²,–,146.1 Å²,–
Oc1ccc2ccccc2c1N=Nc1ccccc1 [C.I. Solvent Yellow 14],–,160.1 Å²,–,156.9 Å²,–
Cc1cc2c3c(c1)C(c1ccccc1)=N[C@@H](NC(=O)c1ccncc1)C(=O)N3CC2 [CI-1018],200.9 Å²,195 Å²,210.1 Å²,201.9 Å²,–
COC(=O)Nc1nc2ccccc2[nH]1 [Carbendazim],139 Å²,–,–,138.7 Å²,–
CNC(=O)Oc1cccc2c1OC(C)(C)C2 [Carbofuran],–,–,157.8 Å²,–,–
N#CC(C#N)=NNc1cccc(Cl)c1 [Carbonyl cyanide chlorophenylhydrazone],142.8 Å²,–,–,–,–
CCCCN(CCCC)SN(C)C(=O)Oc1cccc2c1OC(C)(C)C2 [Carbosulfan],188.3 Å²,–,204.7 Å²,188.3 Å²,–
CC1=C(C(=O)Nc2ccccc2)SCCO1 [Carboxin],153 Å²,155.8 Å²,165.7 Å²,151.4 Å²,–
CCOC(=O)C(Cl)Cc1cc(-n2nc(C)n(C(F)F)c2=O)c(F)cc1Cl (stereo unspecified) [Carfentrazone-ethyl],180.3 Å²,–,187.9 Å²,–,–
CCCC(C)(COC(N)=O)COC(=O)NC(C)C (stereo unspecified) [Carisoprodol],–,–,172.2 Å²,–,–

# Further lines, results first:
collision cross section in nitrogen [1],collision cross section in nitrogen [2],collision cross section in nitrogen [3],collision cross section in nitrogen [4],collision cross section in nitrogen [5],Structure (SMILES)
165.9 Å²,–,–,165.9 Å²,–,CCN(CC)c1ccc(N=Nc2ccccc2)cc1 [C.I. Solvent Yellow 56]
–,178.6 Å²,190.1 Å²,–,–,COc1ccc2sc(C(=O)Nc3nnn[nH]3)c(OC(C)C)c2c1 [CI-959]
–,214.2 Å²,210.5 Å²,–,–,Cc1cc(SC2=C(O)C[C@@](CCc3ccc(N)cc3)(C(C)C)OC2=O)c(C(C)(C)C)cc1CO [CI-1029]
200.2 Å²,199 Å²,–,200.6 Å²,–,Clc1ccc(-c2nc3sccn3c2/C=N/OCc2ccc(Cl)c(Cl)c2)cc1 [CITCO]
–,130.5 Å²,–,–,–,O=C1NS(=O)(=O)c2ccccc21 [Calcium saccharin hydrate]
242.2 Å²,244 Å²,252.1 Å²,241.9 Å²,–,CCOc1nc2cccc(C(=O)OC(C)OC(=O)OC3CCCCC3)c2n1Cc1ccc(-c2ccccc2-c2nnn[nH]2)cc1 (stereo unspecified) [Candesartan cilexetil]
224.4 Å²,226.4 Å²,222.5 Å²,224.2 Å²,–,COCCOC[C@H](CC1(C(=O)N[C@H]2CC[C@@H](C(=O)O)CC2)CCCC1)C(=O)Oc1ccc2c(c1)CCC2 [Candoxatril]
182 Å²,177.8 Å²,173 Å²,–,–,COc1cc(CNC(=O)CCCC/C=C/C(C)C)ccc1O [Capsaicin]
183.9 Å²,186 Å²,194.4 Å²,184.1 Å²,–,CC(=O)c1ccc2c(c1)[C@H](NC(=O)c1ccc(F)cc1)[C@@H](O)C(C)(C)O2 [Carabersat]
150.1 Å²,–,161.1 Å²,150.5 Å²,–,NC(=O)N1c2ccccc2C=Cc2ccccc21 [Carbamazepine]
–,132.9 Å²,–,–,130.2 Å²,c1ccc2c(c1)[nH]c1ccccc12 [Carbazole]
–,–,167.4 Å²,–,–,CCNC(=O)[C@@H](C)OC(=O)Nc1ccccc1 [Carbetamide]
–,–,148 Å²,–,–,CCOC(=O)n1ccn(C)c1=S [Carbimazole]
–,165 Å²,175.6 Å²,–,–,CCCCNC(=O)NS(=O)(=O)c1ccc(N)cc1 [Carbutamide]
173.6 Å²,169.3 Å²,178.2 Å²,175.1 Å²,–,CC(C)c1ccc(C(=O)N=C(N)N)cc1S(C)(=O)=O [Cariporide mesylate]
209.1 Å²,208.9 Å²,217.8 Å²,–,–,Cc1c(C(=O)O)c(O)cc2c1C(=O)c1c(O)c([C@@H]3O[C@H](CO)[C@@H](O)[C@H](O)[C@H]3O)c(O)c(O)c1C2=O [Carminic acid]
–,154.6 Å²,–,–,–,CC1C(C)(C)C2=C(C(=O)CCC2)C1(C)C (stereo unspecified) [Cashmeran]
187.3 Å²,190.8 Å²,–,–,–,Cc1ccc(-c2cc(C(F)(F)F)nn2-c2ccc(S(N)(=O)=O)cc2)cc1 [Celecoxib]
200.3 Å²,195 Å²,195.6 Å²,200 Å²,–,O=C(O)COCCN1CCN(C(c2ccccc2)c2ccc(Cl)cc2)CC1 (stereo unspecified) [Cetirizine hydrochloride (1:2)]
